We go through four compounds from patent publication US6451802B1, “S-oxide lipid lowering compounds” (Janssen Pharmaceutica N.V., priority 1998, dated 2002).

One data set deals with HepG2 cells. Nature of the data set: Quantification of the secretion of ApoB in HepG2 cells. Type of data set: cell-based. Particulars: 24 hours of incubation, calculated by non-linear regression analysis. How it is done: HepG2 cells were cultured in 24-well plates in MEM Rega 3 containing 10% fetal calf serum. At 70% confluency, the medium was changed and the test compound or carrier (DMSO, 0.4% final concentration) was added. After 24 hours of incubation, the medium was transferred to Eppendorf tubes and cleared by centrifugation. A sheep antibody directed against either apoB was added to the supernatant and the mixture was kept at 8° C. for 24 hours. Then, rabbit anti-sheep antibody was added and the immune complex was allowed to precipitate for 24 hours at 8° C. The immunoprecipitate was pelleted by centrifugation for 25 min at 1320 g and washed twice with a buffer containing 40 mM Mops, 40 mM NaH2PO4, 100 mM NaF, 0.2 mM DTT, 5 mM EDTA, 5 mM EGTA, 1% Triton-X-100, 0.5% sodium deoxycholate (DOC), 0.1% SDS, 0.2 μM leupeptin and 0.2 μM PMSF. Radioactivity in the pellet was quantified by liquid scintillation counting. Resulting IC50 values are enumerated in Table C. 1.

In another data set the target is T1, Dog MTP (Canis lupus familiaris, UniProt A0A8I3S8Z7).
T1 sequence (A0A8I3S8Z7 18-893): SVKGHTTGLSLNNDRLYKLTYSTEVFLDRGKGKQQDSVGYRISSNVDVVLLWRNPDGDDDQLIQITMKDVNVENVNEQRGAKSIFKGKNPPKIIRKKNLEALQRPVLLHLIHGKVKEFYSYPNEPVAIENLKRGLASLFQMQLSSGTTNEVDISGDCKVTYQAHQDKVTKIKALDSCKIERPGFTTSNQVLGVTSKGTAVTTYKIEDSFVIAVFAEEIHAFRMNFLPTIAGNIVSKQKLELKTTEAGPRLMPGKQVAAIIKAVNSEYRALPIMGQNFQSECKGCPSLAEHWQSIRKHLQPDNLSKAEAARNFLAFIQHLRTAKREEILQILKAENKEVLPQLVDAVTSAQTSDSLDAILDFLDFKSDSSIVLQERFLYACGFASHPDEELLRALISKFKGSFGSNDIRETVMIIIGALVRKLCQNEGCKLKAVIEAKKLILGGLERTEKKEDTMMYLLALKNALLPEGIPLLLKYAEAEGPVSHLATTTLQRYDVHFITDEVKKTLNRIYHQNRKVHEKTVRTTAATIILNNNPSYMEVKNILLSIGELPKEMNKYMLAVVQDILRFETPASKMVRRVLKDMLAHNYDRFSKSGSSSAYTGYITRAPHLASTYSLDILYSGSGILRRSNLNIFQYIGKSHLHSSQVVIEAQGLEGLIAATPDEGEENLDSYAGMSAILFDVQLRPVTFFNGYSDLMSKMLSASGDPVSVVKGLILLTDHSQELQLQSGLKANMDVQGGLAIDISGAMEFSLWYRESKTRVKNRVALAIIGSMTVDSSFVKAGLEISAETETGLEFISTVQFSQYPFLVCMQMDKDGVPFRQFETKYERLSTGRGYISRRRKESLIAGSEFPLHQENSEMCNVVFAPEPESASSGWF
Nature of the data set: MTP assay (triglyceride transfer from donor to acceptor vesicles). Type of data set: biochemical. Particulars: drug concentration that corresponds with 50% of control values. As to the method: MTP activity was measured using an assay similar to one described by J. R. Wetterau and D. B. Zilversmit in Chemistry and Physics of Lipids, 38, 205-222 (1985). To prepare the donor and acceptor vesicles, the appropriate lipids in chloroform were put into a glass test tube and dried under a stream of N2. A buffer containing 15 mM Tris-HCl pH 7.5, 1 mM EDTA, 40 mM NaCl, 0.02% NaN3 (assay buffer) was added to the dried lipid. The mixture was vortexed briefly and the lipids were then allowed to hydrate for 20 min on ice. Vesicles were then prepared by bath sonication (Branson 2200) at room temperature for maximum 15 min. Butylated hydroxytoluene was included in all vesicle preparations at a concentration of 0.1%. The lipid transfer assay mixture contained donor vesicles (40 nmol phosphatidylcholine, 7.5 mol % of cardiolipin and 0.25 mol % glycerol tri [1-^14C]-oleate), acceptor vesicles (240 nmol phosphatidylcholine) and 5 mg BSA in a total volume of 675 μl in a 1.5 ml microcentrifuge tube. Test compounds were added dissolved in DMSO (0.13% final concentration). After 5 minutes of pre-incubation at 37° C., the reaction was started by the addition of MTP in 100 μl dialysis buffer. The reaction was stopped by the addition of 400 μl DEAE-52 cellulose pre-equilibrated in 15 mM Tris-HCI pH 7.5, 1 mM EDTA, 0.02% NaN3 (1:1, vol/vol). The mixture was agitated for 4 min and centrifuged for 2 min at maximum speed in an Eppendorf centrifuge (4° C.) to pellet the DEAE-52-bound donor vesicles. An aliquot of the supernatant containing the acceptor liposomes was counted and the [^14C]-counts were used to calculate the percent triglyceride transfer from donor to acceptor vesicles. Resulting IC50 values are enumerated in Table C.1.

Data set [1] can be described thus: Plasma levels in a clinical trial on human volunteers. Type of data set: in vivo. Particulars: for share of the total AUC, compounds 1, 2 and 3 together: one value for the three compounds combined. The text has this: Plasma levels of compounds 1, 2 and 3 and of compound A have been measured in a clinical trial on human volunteers.
[2] abbreviates: human volunteers, single 200 mg dose administration of compound A.

For the compound `CCC(C)n1ncn(-c2ccc(N3CCN(c4ccc(OC[C@@H]5CO[C@@](CS(=O)(=O)c6nncn6C)(c6ccc(Cl)cc6)O5)cc4)CC3)cc2)c1=O` (relative stereo) [Compound 1, [2S-[2α,4α(S*)]]-4-[4-[4-[4-[[2-(4-chloropheny)-2-[[(4-methyl-4H-1,2,4-triazol-3-yl)sulfonyl]methyl]-1,3-dioxlan-4-yl]methoxy]phenyl]-1-piperazinyl]phenyl]-2,4-dihydro-2-(1-methylpropyl)-3H-1,2,4-triazol-3-one], the IC50 in the data set with HepG2 cells (Homo sapiens, HepG2, 24 h) was 61 nM; against Dog MTP, 6.2 nM. Further, the “clearance compared with compound A” value in data set [1] (human volunteers) is recorded as “slower than clearance of compound A”. Also, in data set [1] (setting [2]), the “share of the total AUC, compounds 1, 2 and 3 together” value (“share … 2 and 3 together” for short) is on record as 92%.

Take `CCC(C)n1ncn(-c2ccc(N3CCN(c4ccc(OCC5COC(C[S+]([O-])c6nncn6C)(c6ccc(Cl)cc6)O5)cc4)CC3)cc2)c1=O` (single isomer, unassigned) [Compound 2]: the IC50 in the data set on HepG2 cells was 930 nM; against Dog MTP it was 118 nM. In data set [1] (human volunteers), the “clearance compared with compound A” value is given as “slower than clearance of compound A”. Besides, in data set [1] (setting [2]), the “share … 2 and 3 together” value worked out at 92%.

On to `CCC(C)n1ncn(-c2ccc(N3CCN(c4ccc(OCC5COC(C[S+]([O-])c6nncn6C)(c6ccc(Cl)cc6)O5)cc4)CC3)cc2)c1=O` (single isomer, unassigned) [Compound 3, [2S-[2α(B),4α(S*)]]-4-[4-[4-[4-[[2-(4-chlorophenyl)-2-[[(4-methyl-4H-1,2,4-traizol-3yl]sulfinyl]methyl]-1,3-dioxolan-4-yl]methoxy]phenyl]-1-piperazinyl]Phenyl-2,4-dihydro-2-(1-methylpropyl)-3H-1,2,4-traizol-3-one], for which the IC50 is 94 nM in the data set on HepG2 cells and 11 nM on Dog MTP. Moreover, the “clearance compared with compound A” value in data set [1] (human volunteers) is on record as “slower than clearance of compound A”. For the same compound, in data set [1] (setting [2]), the “share … 2 and 3 together” value is 92%.

As to `CC[C@@H](C)n1ncn(-c2ccc(N3CCN(c4ccc(OC[C@@H]5CO[C@@](CSc6nncn6C)(c6ccc(Cl)cc6)O5)cc4)CC3)cc2)c1=O` [compound A, (−)-[2S-[2α,4α(S*)]]-4-[4-[4-[4-[[-2-(4-chlorophenyl)-2-[[(4-methyl-4H-1,2,4-triazol-3-yl)thio]methyl]-1,3-dioxolan-4-yl]methoxy]phenyl]-1-piperazinyl]phenyl]-2,4-dihydro-2-(1-methylpropyl)-3H-1,2,4-triazol-3-one, reference compound], the IC50 was 25 nM with HepG2 cells (Homo sapiens, HepG2, 24 h) and 7.6 nM on Dog MTP. Besides, the “share of the total AUC (Area Under the Curve)” value in data set [1] (setting [2]) was found to be 8%. In addition, in data set [1] (human, in vivo), the “metabolisation on passing the liver (first-pass)” value is recorded as “extensive metabolisation”.
